Test results from article PMC7127091 (Bioorganic & Medicinal Chemistry, 2010).

What follows are compounds tested on human cytomegalovirus (HCMV) strain Davis (assay: Anti-HCMV assay in HEL fibroblasts). Conditions: HCMV replication in cell culture.
Assay type: cell-based

Compound	anti-HCMV activity (in words)
C[C@H](NC(=O)[C@@]1(Cc2ccccc2)CCN1C(=O)OCc1ccccc1)C(=O)NC(C)(C)C [(R,S)-4a, (2R,1’S)-2-Benzyl-1-benzyloxycarbonyl-2-[(1’-tert-butylcarbamoyl)ethyl]carbamoyl-azetidine]	retain the anti-HCMV activity
CC(C)C[C@H](NC(=O)[C@@]1(Cc2ccccc2)CCN1C(=O)OCc1ccccc1)C(N)=O [(R,S)-7d, (2R,1’S)-2-Benzyl-1-benzyloxycarbonyl-2-[(1’-carbamoyl-3’-methyl)butyl]carbamoyl-azetidine]	maintain measurable anti-HCMV activity
C[C@@H](NC(=O)[C@]1(Cc2ccccc2)CCN1C(=O)OCc1ccccc1)C(N)=O [(S,R)-7a, (2S,1’R)-2-Benzyl-1-benzyloxycarbonyl-2-[(1’-carbamoyl)ethyl]carbamoylazetidine]	maintain measurable anti-HCMV activity
C[C@H](NC(=O)[C@]1(Cc2ccccc2)CCN1C(=O)OCc1ccccc1)C(=O)NC(C)(C)C [(S,S)-4a, (2S,1’S)-2-Benzyl-1-benzyloxycarbonyl-2-[(1’-tert-butylcarbamoyl)ethyl]carbamoyl-azetidine]	retain the anti-HCMV activity
CC(C)CNC(=O)[C@H](C)NC(=O)[C@]1(Cc2ccccc2)CCN1C(=O)OCc1ccccc1 [(S,S)-4c, (2S,1’S)-2-Benzyl-1-benzyloxycarbonyl-2-[(1’-isobutylcarbamoyl)ethyl]carbamoyl-azetidine]	retain the anti-HCMV activity
CC(C)[C@H](NC(=O)[C@]1(Cc2ccccc2)CCN1C(=O)OCc1ccccc1)C(N)=O [(S,S)-7c, (2S,1’S)-2-Benzyl-1-benzyloxycarbonyl-2-[(1’-carbamoyl-2’-methyl)propyl]carbamoyl-azetidine]	maintain measurable anti-HCMV activity
C[C@H](NC(=O)[C@]1(Cc2ccccc2)CCN1C(=O)OCC1c2ccccc2-c2ccccc21)C(N)=O [(S,S)-10a, (2S,1’S)-2-Benzyl-2-[(1’-carbamoyl)ethyl]carbamoyl-1-(9-fluorenylmethoxy)carbonyl-azetidine]	inactive against HCMV
C[C@H](NC(=O)[C@]1(Cc2ccccc2)CCN1C(=O)NCc1ccccc1)C(N)=O [(S,S)-10h, (2S,1’S)-2-Benzyl-1-benzylcarbamoyl-2-[(1’-carbamoyl)ethyl]carbamoylazetidine]	inactive
C[C@H](NC(=O)[C@]1(Cc2ccccc2)CCN1C(=O)N[C@@H](C)c1ccccc1)C(N)=O [(S,S)-10i, (2S,1’S,1’’S)-2-Benzyl-2-[(1’’-carbamoyl)ethyl]carbamoyl-1-[(1’-phenyl)ethyl]carbamoyl-azetidine]	inactive
C[C@H](NC(=O)[C@H](Cc1ccccc1)NC(=O)OCc1ccccc1)C(N)=O [compound 11, Z-Phe-Ala-NH2]	unable to inhibit the replication of HCMV
C[C@H](NC(=O)[C@H](Cc1ccccc1)NC(=O)OCc1ccccc1)C(=O)NC(C)(C)C [compound 12, Z-Phe-Ala-NH^tBu]	unable to inhibit the replication of HCMV
(2S,1’S)-2-Benzyl-2-[(1’-carbamoyl)ethyl]carbamoyl-1-phenetylcarbonylazetidine [(S,S)-10g]	inactive

Same assay, conditions: read-out: EC50 HCMV; Davis strain, 100 PFU, HEL fibroblasts, 7 days

Compound	EC50
(2S,1’S)-2-Benzyl-2-[(1’-carbamoyl)ethyl]carbamoyl-1-(4-nitrobenzyloxy)carbonyl-azetidine [(S,S)-10c]	> 20 µM
(2S,1’S)-2-Benzyl-2-[(1’-carbamoyl)ethyl]carbamoyl-1-phenetylcarbonylazetidine [(S,S)-10g]	> 100 µM
